# Results as given in patent US8754115B2, “Fungicidal pyrazoles” (E I du Pont de Nemours and Company, priority 2010, dated 2014).
# Marks after values point to notes of the source that are not given here.
# Columns and labels:
# Format in all cases: in vivo
# Botrytis cinerea = assay: Test A: preventive spray on tomato seedlings, visual disease rating (tomato Botrytis)
# From the text: (§1) General protocol for preparing test suspensions for Tests A-F: the test compounds were first dissolved in acetone in an amount equal to 3% of the final volume and then suspended at the desired concentration (in ppm) in acetone and purified water (50/50 mix by volume) containing 250 ppm of the surfactant Trem® 014 (polyhydric alcohol esters). The resulting test suspensions were then used in Tests A-F. Spraying a 200 ppm test suspension to the point of run-off on the test plants was the equivalent of a rate of 800 g/ha. Unless otherwise indicated, the rating values indicate a 200 ppm test suspension was used. (An asterisk “*” next to the rating value indicates a 40 ppm test suspension was used.)
# The test suspension was sprayed to the point of run-off on tomato seedlings. The following day the seedlings were inoculated with a spore suspension of Botrytis cinerea (the causal agent of tomato Botrytis) and incubated in saturated atmosphere at 20° C. for 48 h, and then moved to a growth chamber at 24° C. for 3 days, after which time visual disease ratings were made.
# (§2) Results for Tests A-F are given in Table A. In the Table, a rating of 100 indicates 100% disease control and a rating of 0 indicates no disease control (relative to the controls). A dash (-) indicates no test results. An asterisk “*” next to the rating value indicates a 40 ppm test suspension was used.
# Septoria nodorum = assay: Test C: preventive spray on wheat seedlings, visual disease rating (Septoria glume blotch); details: asterisk: 40 ppm test suspension
# From the text: as §1
# The test suspension was sprayed to the point of run-off on wheat seedlings. The following day the seedlings were inoculated with a spore suspension of Septoria nodorum (the causal agent of Septoria glume blotch) and incubated in a saturated atmosphere at 24° C. for 48 h, and then moved to a growth chamber at 20° C. for 6 days, after which time visual disease ratings were made.
# as §2
# Septoria tritici = assay: Test D: preventive spray on wheat seedlings, visual disease rating (wheat leaf blotch)
# From the text: as §1
# The test suspension was sprayed to the point of run-off on wheat seedlings. The following day the seedlings were inoculated with a spore suspension of Septoria tritici (the causal agent of wheat leaf blotch) and incubated in saturated atmosphere at 24° C. for 48 h, and then moved to a growth chamber at 20° C. for 19 days, after which time visual disease ratings were made.
# as §2
# [1] = test system: Puccinia recondite f. sp. tritici; assay: Test E2: preventive spray on wheat seedlings, visual disease rating (wheat leaf rust)
# From the text: as §1
# The test suspension was sprayed to the point of run-off on wheat seedlings. The following day the seedlings were inoculated with a spore suspension of Puccinia recondite f. sp. tritici (the causal agent of wheat leaf rust) and incubated in a saturated atmosphere at 20° C. for 24 h, and then moved to a growth chamber at 20° C. for 7 days, after which time visual disease ratings were made.
# as §2
# [2] = test system: Blumeria graminis f. sp. tritici; assay: Test F: preventive spray on wheat seedlings, visual disease rating (wheat powdery mildew)
# From the text: as §1
# The test suspension was sprayed to the point of run-off on wheat seedlings. The following day the seedlings were inoculated with a spore dust of Blumeria graminis f. sp. tritici, (also known as Erysiphe graminis f. sp. tritici, the causal agent of wheat powdery mildew) and incubated in a growth chamber at 20° C. for 8 days, after which time visual disease ratings were made.
# as §2
# [3] = asterisk: 40 ppm test suspension
# [4] = no asterisk: standard test suspension, not 40 ppm, 100 = 100% disease control, 0 = none
# [5] = no asterisk: standard test suspension, not 40 ppm
Structure (SMILES),Test A rating (% disease control) (Botrytis cinerea; [3]),Test C rating (% disease control) (Septoria nodorum),Test D rating (% disease control) (Septoria tritici; [3]),"Test E2 rating (% disease control) [1, 3]","Test F rating (% disease control) [2, 3]",Test A rating (% disease control) (Botrytis cinerea; [4]) [%],Test D rating (% disease control) (Septoria tritici; [5]) [%],"Test E2 rating (% disease control) [1, 5] [%]","Test F rating (% disease control) [2, 5] [%]"
COc1nn(C)c(-c2c(F)cccc2Cl)c1C(O)c1c(F)ccc(F)c1F (stereo not shown) [compound 145],26* %,0* %,35* %,82* %,73* %,,,,
COc1nn(C)c(-c2c(F)cccc2Cl)c1C(O)c1c(F)ccc(F)c1Cl (stereo not shown) [compound 144],78* %,0* %,100* %,100* %,98* %,,,,
COc1ccc(C(O)c2c(OC)nn(C)c2-c2c(F)cccc2Cl)c(F)c1 (stereo not shown) [compound 143],100* %,0* %,100* %,99* %,98* %,,,,
COc1nn(C)c(-c2c(F)cccc2F)c1C(O)c1ccc(F)cc1Cl (stereo not shown) [compound 126],,,,,,100,100,100,100
COc1nn(C)c(-c2c(F)cccc2Cl)c1C(O)c1ccc(F)cc1C (stereo not shown) [compound 140],100* %,99* %,100* %,99* %,100* %,,,,
Cn1nc(Cl)c(C(O)c2ccc(F)cc2F)c1-c1c(F)cccc1Cl (stereo not shown) [compound 133],,,,,,100,100,100,99
Cc1nn(C)c(-c2c(F)cc(Br)cc2F)c1C(=O)c1ccc(F)cc1F [compound 102],,,,,,0,0,55,97
COc1ccc(C(O)c2c(OC)nn(C)c2-c2c(F)cccc2Cl)c(Cl)c1 (stereo not shown) [compound 142],100* %,60* %,100* %,100* %,100* %,,,,
COc1nn(C)c(-c2c(F)cc(F)cc2F)c1C(O)c1ccc(F)cc1F (stereo not shown) [compound 153],100* %,,100* %,100* %,100* %,,,,
COCOC(c1ccc(F)cc1Cl)c1c(C)nn(C)c1-c1c(F)cccc1F (stereo not shown) [Compound 110],0* %,,100* %,98* %,99* %,,,,
Cn1nc(OC(F)F)c(C(O)c2ccc(F)cc2Cl)c1-c1c(F)cccc1F (stereo not shown) [compound 128],43* %,0* %,100* %,85* %,56* %,,,,
Cc1nn(C)c(-c2c(F)cccc2F)c1C(SC#N)c1ccc(F)cc1F (stereo not shown) [Compound 115],88* %,,100* %,94* %,99* %,,,,
Cn1nc(Br)c(C(O)c2ccc(F)cc2Br)c1-c1ccc(F)cc1Cl (stereo not shown) [compound 164],,,,,,100,100,100,0
COc1nn(C)c(-c2c(F)cc(F)cc2Cl)c1C(O)c1ccc(F)cc1Cl (stereo not shown) [compound 141],100* %,97* %,100* %,99* %,99* %,,,,
Cn1nc(Br)c(C(O)c2ccc(F)cc2Br)c1-c1c(F)cccc1Cl (stereo not shown) [compound 132],,,100* %,99* %,,0,,,100
Cc1nn(C)c(-c2c(Cl)cncc2Cl)c1C(O)c1ccc(F)cc1F (stereo not shown) [compound 167],0* %,,58* %,0* %,0* %,,,,
"Cc1nn(C)c(-c2ccc(F)cc2I)c1C(O)c1ccc(F)cc1Cl (single isomer, unassigned) [compound 103]",,,,,,99,98,96,95
Cc1nn(C)c(-c2c(F)cccc2F)c1C(SC#N)c1ccc(F)cc1Cl (stereo not shown) [Compound 111],,,,,,100,100,100,100
COc1nn(C)c(-c2c(F)cc(F)cc2F)c1C(O)c1ccc(F)cc1Cl (stereo not shown) [compound 152],100* %,,100* %,100* %,100* %,,,,
Cc1cc(F)ccc1C(O)c1c(C)nn(C)c1-n1ccnc1C (stereo not shown) [compound 147],0* %,,0* %,17* %,0* %,,,,
C=CCOC(c1ccc(F)cc1Cl)c1c(C)nn(C)c1-c1c(F)cccc1F (stereo not shown) [Compound 109],0* %,,100* %,98* %,97* %,,,,
Cc1nn(C)c(-c2c(F)cc(Br)cc2F)c1C(O)c1ccc(F)cc1F (stereo not shown) [compound 106],,,,,,98,100,97,0
Cc1cc(F)ccc1C(O)c1c(Br)nn(C)c1-c1c(F)cccc1Cl (stereo not shown) [compound 149],,,,,,100,100,100,100
Cc1nn(C)c(-c2c(F)cccc2F)c1C(OCC#N)c1ccc(F)cc1Cl (stereo not shown) [Compound 107],9* %,,99* %,99* %,99* %,,,,
